Experimental data from patent US4994376A, “Detection of bacteroides gingivalis” (priority 1987, dated 1991).
Like-named read-outs stand apart in the source and are kept apart here. Peptide text beside a SMILES is read from it. * marks the point of attachment. βNA = c1ccc2cc(N*)ccc2c1

Legend:
Type in all cases: biochemical
V. parvula = details: strain ATCC 10790; β-naphthylamine liberated after 60 minutes, 37° C.
In short: (§1)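 Aminopeptidase values express the nanomoles of β-naphthylamine freed from N-CBz-glycyl-glycyl-L-arginine-β-naphthylamide during a 60-minute, 37° C incubation. The liberated amine was coupled with stabilized diazonium salt Fast Garnet GBC and measured at 525 nm against an enzyme-free blank.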

Fusobacterium nucleatum = details: β-naphthylamine liberated after 60 minutes, 37° C.
In short: as §1

Veillonella sp. = details: strain SE1M2; β-naphthylamine liberated after 60 minutes, 37° C.
In short: as §1

Campylobacter sputorum = details: strain Ba1-21; β-naphthylamine liberated after 60 minutes, 37° C.
In short: as §1

Streptococcus mitis = details: β-naphthylamine liberated after 60 minutes, 37° C.
In short: as §1

[1] = system: Actinobacillus actinomycetemcomitans; details: β-naphthylamine liberated after 60 minutes, 37° C.
In short: as §1

Actinomyces israeli = details: β-naphthylamine liberated after 60 minutes, 37° C.
In short: as §1

A. seminis = details: strain ATCC 15768; β-naphthylamine liberated after 60 minutes, 37° C.
In short: as §1

S. sanguis = details: β-naphthylamine liberated after 60 minutes, 37° C.
In short: as §1

Eikenella corrodens = details: strain BP1-6; β-naphthylamine liberated after 60 minutes, 37° C.
In short: as §1

S. mutans = details: strain ATCC 25175; β-naphthylamine liberated after 60 minutes, 37° C.
In short: as §1

A. viscosus = details: β-naphthylamine liberated after 60 minutes, 37° C.
In short: as §1

"Anaerobic vibrio" = details: strain SN2T2; β-naphthylamine liberated after 60 minutes, 37° C.
In short: as §1

B. denticola = experiment: Aminopeptidase activity on β-naphthylamide substrates; details: strain ATCC 33185; β-naphthylamine liberated after 60 minutes, 37° C.
In short: (§2)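 N-CBz-glycyl-glycyl-L-arginine-β-naphthylamide was hydrolysed for 1 hour at 37 °C, then coupled with Fast Garnet GBC (0.5 mg/ml) in 1M acetic acid buffer, pH 4.2, containing 10% Tween 20. After 15 minutes at room temperature, absorbance was read at 525 nm against a no-enzyme blank; activity is given as nmol β-naphthylamine released per 60 min.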

B. intermedius = experiment: as above; details: strain ATCC 25611; β-naphthylamine liberated after 60 minutes, 37° C.
In short: as §2

B. corporis = experiment: as above; details: strain ATCC 33547; β-naphthylamine liberated after 60 minutes, 37° C.
In short: as §2

C. sputigena = experiment: as above; details: strain ATCC 33123; β-naphthylamine liberated after 60 minutes, 37° C.
In short: as §2

B. melaninogenicus = experiment: as above; details: strain ATCC 25845; β-naphthylamine liberated after 60 minutes, 37° C.
In short: as §2

B. levii = details: β-naphthylamine liberated after 60 minutes, 37° C.
In short: as §2

B. loescheii = details: β-naphthylamine liberated after 60 minutes, 37° C.
In short: as §2

Bacteroides gingivalis = details: β-naphthylamine liberated after 60 minutes, 37° C.
In short: as §2

A. equuli = experiment: Aminopeptidase activity on β-naphthylamide substrates; details: strain ATCC 19392; β-naphthylamine liberated after 60 minutes, 37° C.
In short: as §1

L. fermentum = experiment: as above; details: strain ATCC 11581; β-naphthylamine liberated after 60 minutes, 37° C.
In short: as §1

F. periodonticum = experiment: as above; details: strain EK1-15; β-naphthylamine liberated after 60 minutes, 37° C.
In short: as §1

A. suis = experiment: as above; details: strain ATCC 15557; β-naphthylamine liberated after 60 minutes, 37° C.
In short: as §1

Haemophilus aphrophilus = experiment: as above; details: β-naphthylamine liberated after 60 minutes, 37° C.
In short: as §1

S. salivarius = experiment: as above; details: β-naphthylamine liberated after 60 minutes, 37° C.
In short: as §1

Lactobacillus casei = experiment: as above; details: β-naphthylamine liberated after 60 minutes, 37° C.
In short: as §1

For `C[C@H](N)C(=O)N[C@@H](C)C(=O)N[C@@H](Cc1ccccc1)C(=O)Nc1ccc2ccccc2c1` [Ala-Ala-Phe] (H-Ala-Ala-Phe-βNA), the Aminopeptidase activity (V. parvula) was 0 nmol, the Aminopeptidase activity (Fusobacterium nucleatum; strain 2) was 2 nmol and the Aminopeptidase activity (Fusobacterium nucleatum; strain ATCC 25586) was 3 nmol. It also gave an Aminopeptidase activity (Fusobacterium nucleatum; strain D31A-24) of 0 nmol, an Aminopeptidase activity (Veillonella sp.) of 0 nmol and an Aminopeptidase activity (Campylobacter sputorum) of 0 nmol. It also gave an Aminopeptidase activity (Streptococcus mitis; strain ATCC 9815) of 3 nmol, an Aminopeptidase activity (Streptococcus mitis; strain ATCC 15909) of 1 nmol and an Aminopeptidase activity (Streptococcus mitis; strain ATCC 15911) of 0 nmol. The Aminopeptidase activity (Streptococcus mitis; strain ATCC 15912) was 0 nmol, the Aminopeptidase activity ([1]; strain 67) was 3 nmol and the Aminopeptidase activity ([1]; strain 75) was 1 nmol. It also gave an Aminopeptidase activity ([1]; strain ATCC 29523) of 0 nmol, an Aminopeptidase activity ([1]; strain NCTC 9709) of 1 nmol and an Aminopeptidase activity ([1]; strain Y4) of 0 nmol. The Aminopeptidase activity (Actinomyces israeli; strain ATCC 12103) was 3 nmol, the Aminopeptidase activity (Actinomyces israeli; strain DK2-3) was 0 nmol and the Aminopeptidase activity (A. seminis) was 0 nmol. For the same compound, the Aminopeptidase activity (S. sanguis; strain ATCC 10556) was 2 nmol, the Aminopeptidase activity (S. sanguis; strain ATCC 10557) was 1 nmol and the Aminopeptidase activity (Eikenella corrodens) was 0 nmol. The Aminopeptidase activity (S. mutans) was 0 nmol, the Aminopeptidase activity (A. viscosus; strain ATCC 19246) was 2 nmol and the Aminopeptidase activity (A. viscosus; strain T14V) was 4 nmol. The Aminopeptidase activity ("Anaerobic vibrio") was 0 nmol, the Aminopeptidase activity (B. denticola) was 2 nmol and the Aminopeptidase activity (B. intermedius) was 0 nmol. It also gave an Aminopeptidase activity (B. corporis) of 0 nmol, an Aminopeptidase activity (C. sputigena) of 44 nmol and an Aminopeptidase activity (B. melaninogenicus) of 1 nmol. For the same compound, the Aminopeptidase activity (B. levii; strain 18-1-5) was 0 nmol, the Aminopeptidase activity (B. levii; strain 18-1-8) was 0 nmol and the Aminopeptidase activity (B. loescheii; strain ATCC 15930) was 1 nmol. For the same compound, the Aminopeptidase activity (B. loescheii; strain VPI4196) was 0 nmol, the Aminopeptidase activity (Bacteroides gingivalis; strain 9-14K-1) was 0 nmol and the Aminopeptidase activity (Bacteroides gingivalis; strain 11-1-2) was 0 nmol. The Aminopeptidase activity (Bacteroides gingivalis; strain 381) was 0 nmol, the Aminopeptidase activity (Bacteroides gingivalis; strain 1021) was 0 nmol and the Aminopeptidase activity (Bacteroides gingivalis; strain ATCC 33277) was 1 nmol. The Aminopeptidase activity (Bacteroides gingivalis; strain FAYE 19m-1) was 3 nmol, the Aminopeptidase activity (A. equuli) was 0 nmol and the Aminopeptidase activity (L. fermentum) was 5 nmol. It also gave an Aminopeptidase activity (F. periodonticum) of 1 nmol, an Aminopeptidase activity (A. suis) of 0 nmol and an Aminopeptidase activity (Haemophilus aphrophilus; strain ATCC 13252) of 0 nmol. The Aminopeptidase activity (Haemophilus aphrophilus; strain ATCC 19415) was 0 nmol, the Aminopeptidase activity (Haemophilus aphrophilus; strain NCTC 5908) was 0 nmol and the Aminopeptidase activity (S. salivarius; strain ATCC 9759) was 0 nmol. It also gave an Aminopeptidase activity (S. salivarius; strain ATCC 25975) of 0 nmol, an Aminopeptidase activity (Lactobacillus casei; strain ATCC 7469) of 0 nmol and an Aminopeptidase activity (Lactobacillus casei; strain ATCC 11578) of 3 nmol. The Aminopeptidase activity (Lactobacillus casei; strain ATCC 11582) was 3 nmol.
